According to patent publication US20100041892A1, “Therapeutic agent for diabetes” (priority 2005, published 2010):
Like-named read-outs stand apart in the source and are kept apart here.

Assays:
PPARγ-RXRα heterodimer = biological target: T1, PPARγ-RXRα heterodimer (Homo sapiens, UniProt P37231); experiment: PPARγ-RXRα heterodimer ligand activity (luciferase reporter, PPARγ:RXRα:4ERPP/CHO-K1 cells); assay type: cell-based; conditions: concentration showing 50% of the maximum luciferase induction rate; CHO-K1 reporter cells, one day incubation
T1 construct: expressed in transfected cells; host or cells: CHO-K1 (PPARγ:RXRα:4ERPP/CHO-K1)
T1 sequence (P37231 1-477 isoform P37231-2): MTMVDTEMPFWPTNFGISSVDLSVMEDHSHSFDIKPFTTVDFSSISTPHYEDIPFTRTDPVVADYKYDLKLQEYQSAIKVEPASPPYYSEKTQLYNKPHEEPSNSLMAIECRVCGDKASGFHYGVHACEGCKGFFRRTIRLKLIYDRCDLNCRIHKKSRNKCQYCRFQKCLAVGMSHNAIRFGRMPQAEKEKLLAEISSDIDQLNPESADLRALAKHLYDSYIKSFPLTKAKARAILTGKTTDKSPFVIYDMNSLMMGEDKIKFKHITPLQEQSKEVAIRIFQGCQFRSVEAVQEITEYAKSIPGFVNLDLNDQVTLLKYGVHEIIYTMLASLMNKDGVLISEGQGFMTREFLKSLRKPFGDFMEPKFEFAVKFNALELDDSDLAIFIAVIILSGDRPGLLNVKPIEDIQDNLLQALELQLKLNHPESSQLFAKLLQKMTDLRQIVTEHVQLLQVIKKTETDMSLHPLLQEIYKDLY
T1 sequence (P19793 1-462 partner): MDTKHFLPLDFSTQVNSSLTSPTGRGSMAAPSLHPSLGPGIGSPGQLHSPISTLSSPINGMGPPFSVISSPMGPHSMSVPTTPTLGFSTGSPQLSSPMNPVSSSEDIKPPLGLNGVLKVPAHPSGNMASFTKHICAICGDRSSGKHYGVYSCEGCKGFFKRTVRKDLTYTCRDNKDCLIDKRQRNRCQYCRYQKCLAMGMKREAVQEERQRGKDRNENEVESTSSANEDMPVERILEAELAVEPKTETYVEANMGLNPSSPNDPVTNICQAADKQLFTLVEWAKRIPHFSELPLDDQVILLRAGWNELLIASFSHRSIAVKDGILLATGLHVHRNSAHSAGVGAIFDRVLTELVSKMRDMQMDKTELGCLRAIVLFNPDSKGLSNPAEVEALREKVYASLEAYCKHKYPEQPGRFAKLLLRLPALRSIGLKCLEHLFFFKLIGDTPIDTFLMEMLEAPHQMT
In short: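 CHO-K1 cells expressing PPARγ:RXRα with a 4ERPP reporter were exposed to compound for one day at 37° C in Ham F12 containing 0.1% fatty acid-free BSA, then read for luciferase. Induction rate was taken relative to untreated cells as 1, and EC50 is the concentration giving 50% of maximal induction.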

KKAy mice = experiment: Blood glucose and blood lipid (triglyceride) lowering action in mice; assay type: in vivo; conditions: Mus musculus, 4TO7, po, 0.01% in powder diet, 4 to 7 days
In short: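 KKAy mice (9 to 14-week-old, 5 per group) fed compound in powder diet at 0.01% (some at 0.03% or 0.005%) ad libitum for 4 to 7 days. Orbital plexus blood drawn; plasma glucose and triglyceride quantitated by enzyme method.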

[1] = plasma glucose relative to non-administration group = 100%, read-out: hypoglycemic action (%)
[2] = plasma triglyceride relative to non-administration group = 100%, read-out: hypolipidemic action (%)

Structure (SMILES) | EC50 (PPARγ-RXRα heterodimer) [nM] | melting point [°C] | response vs control in vivo at 0.01 % (KKAy mice; [1]) [%] | response vs control in vivo at 0.01 % (KKAy mice; [2]) [%]
CCCCCS(=O)(=O)NC(=O)/C=C/c1ccc(OCCC2OCCO2)cc1Oc1ncc(C(F)(F)F)cc1Cl [Example 196, (2E)-3-[2-{[3-chloro-5-(trifluoromethyl)pyridin-2-yl]oxy}-4-[2-(1,3-dioxolan-2-yl)ethoxy]phenyl)-N-(pentylsulfonyl)acrylamide] | 4.4 | 116 to 118 | 54 | 79
CCCCCS(=O)(=O)NC(=O)/C=C/c1ccc(Oc2ncccn2)cc1Oc1ncc(C(F)(F)F)cc1Cl [Example 197, (2E)-3-[2-{[3-chloro-5-(trifluoromethyl)pyridin-2-yl]oxy}-4-(pyrimidin-2-yloxy)phenyl]-N-(pentylsulfonyl)acrylamide] | 28 | 80.5 to 82.5 | 58 | 87
CCCCCS(=O)(=O)NC(=O)/C=C/c1ccc(OC(COCC)COCC)cc1Oc1ncc(C(F)(F)F)cc1Cl [Example 198, (2E)-3-{2-{[3-chloro-5-(trifluoromethyl)pyridin-2-yl]oxy}-4-[2-ethoxy-1-(ethoxymethyl)ethoxy]phenyl}-N-(pentylsulfonyl)acrylamide] | 7.8 | 83 to 85.5 | 62 | 84
COCCOc1ccc(CCCOC(=O)NS(=O)(=O)NC2CCC(C)CC2)c(Oc2ncc(C(F)(F)F)cc2Cl)c1 (stereo not drawn) [Example 205, 3-[2-{[3-chloro-5-(trifluoromethyl)pyridin-2-yl]oxy}-4-(2-methoxyethoxy)phenyl]propyl {[(4-methylcyclohexyl)amino]sulfonyl}carbamate] | 3.1 | 121.5 to 121.8 | 54 | 50
COCCOc1ccc(CCCOC(=O)NS(=O)(=O)NCCc2cccs2)c(Oc2ncc(C(F)(F)F)cc2Cl)c1 [Example 207, 3-[2-{[3-chloro-5-(trifluoromethyl)pyridin-2-yl]oxy}-4-(2-methoxyethoxy)phenyl]propyl ({[2-(2-thienyl)ethyl]amino}sulfonyl)carbamate] | 0.99 | 117.5 to 118 | 54 | 43
COCCOc1ccc(CCCOC(=O)NS(=O)(=O)NCCc2ccccn2)c(Oc2ncc(C(F)(F)F)cc2Cl)c1 [Example 208, 3-[2-{[3-chloro-5-(trifluoromethyl)pyridin-2-yl]oxy}-4-(2-methoxyethoxy)phenyl]propyl {[(2-pyridin-2-ylethyl)amino]sulfonyl}carbamate] | 4 | 91 to 93 | 70 | 71
COCCOc1ccc(CCCOC(=O)NS(=O)(=O)NCCOC(C)C)c(Oc2ncc(Cl)cc2Cl)c1 [Example 429, 3-[2-[(3,5-dichloropyridin-2-yl)oxy]-4-(2-methoxyethoxy)phenyl]propyl {[(2-isopropoxyethyl)amino]sulfonyl}carbamate] | 3.8 | 87.5 to 88.4 | 51 | 60
CCOCC(COCC)Oc1ccc(CCCOC(=O)NS(=O)(=O)NCCOC(C)C)c(Oc2ncc(C(F)(F)F)cc2Cl)c1 [Example 430, 3-{2-{[3-chloro-5-(trifluoromethyl)pyridin-2-yl]oxy}-4-[2-ethoxy-1-(ethoxymethyl)ethoxy]phenyl}propyl {[(2-isopropoxyethyl)amino]sulfonyl}carbamate] | 0.95 | 68 to 69.2 | 45 | 34
COCCOc1ccc(/C=C/COC(=O)NS(=O)(=O)N2CCCC2)c(Oc2ncc(C(F)(F)F)cc2Cl)c1 [Example 437, (2E)-3-[2-{[3-chloro-5-(trifluoromethyl)pyridin-2-yl]oxy}-4-(2-methoxyethoxy)phenyl]prop-2-en-1-yl (pyrrolidin-1-ylsulfonyl)carbamate] | 54 | 123 to 124 | 45 | 58
